Reference: patent US20050153989A1, “Pyrrolopyrimidine derivatives and analogs and their use in the treatment and prevention of diseases” (Ambit Biosciences Corporation, priority 2004, published 2005)

These compounds were tested against T1, EGFR (Homo sapiens, UniProt P00533) (assay: Binding constant (Kd) measurement, T7 phage-displayed kinase competition binding, wildtype EGFR). Settings: read-out: Kd for EGFR (DKIN) Binding.
Set-up: made in house
Text: Methods for measuring binding affinities for interactions between small molecules and kinases including FLT3, c-KIT, ABL(T334I) [a.k.a. […] The components of the assays include human kinases expressed as fusions to T7 bacteriophage particles and immobilized ligands that bind to the ATP site of the kinases. […] If the test compound binds the kinase it competes with the immobilized ligand and prevents binding to the solid support. […] The results are read out by quantitating the amount of fusion protein bound to the solid support, which is accomplished by either traditional phage plaque assays or by quantitative PCR (qPCR) using the phage genome as a template.
The term “ND” represents non-determined values.
To measure the Kd values, the T7 phage displaying human EGFR were incubated with an […] affinity matrix in the presence of various concentrations of a soluble (non-immobilized) compounds provided herein, as described in detail herein.

T1 sequence (P00533 25-1210): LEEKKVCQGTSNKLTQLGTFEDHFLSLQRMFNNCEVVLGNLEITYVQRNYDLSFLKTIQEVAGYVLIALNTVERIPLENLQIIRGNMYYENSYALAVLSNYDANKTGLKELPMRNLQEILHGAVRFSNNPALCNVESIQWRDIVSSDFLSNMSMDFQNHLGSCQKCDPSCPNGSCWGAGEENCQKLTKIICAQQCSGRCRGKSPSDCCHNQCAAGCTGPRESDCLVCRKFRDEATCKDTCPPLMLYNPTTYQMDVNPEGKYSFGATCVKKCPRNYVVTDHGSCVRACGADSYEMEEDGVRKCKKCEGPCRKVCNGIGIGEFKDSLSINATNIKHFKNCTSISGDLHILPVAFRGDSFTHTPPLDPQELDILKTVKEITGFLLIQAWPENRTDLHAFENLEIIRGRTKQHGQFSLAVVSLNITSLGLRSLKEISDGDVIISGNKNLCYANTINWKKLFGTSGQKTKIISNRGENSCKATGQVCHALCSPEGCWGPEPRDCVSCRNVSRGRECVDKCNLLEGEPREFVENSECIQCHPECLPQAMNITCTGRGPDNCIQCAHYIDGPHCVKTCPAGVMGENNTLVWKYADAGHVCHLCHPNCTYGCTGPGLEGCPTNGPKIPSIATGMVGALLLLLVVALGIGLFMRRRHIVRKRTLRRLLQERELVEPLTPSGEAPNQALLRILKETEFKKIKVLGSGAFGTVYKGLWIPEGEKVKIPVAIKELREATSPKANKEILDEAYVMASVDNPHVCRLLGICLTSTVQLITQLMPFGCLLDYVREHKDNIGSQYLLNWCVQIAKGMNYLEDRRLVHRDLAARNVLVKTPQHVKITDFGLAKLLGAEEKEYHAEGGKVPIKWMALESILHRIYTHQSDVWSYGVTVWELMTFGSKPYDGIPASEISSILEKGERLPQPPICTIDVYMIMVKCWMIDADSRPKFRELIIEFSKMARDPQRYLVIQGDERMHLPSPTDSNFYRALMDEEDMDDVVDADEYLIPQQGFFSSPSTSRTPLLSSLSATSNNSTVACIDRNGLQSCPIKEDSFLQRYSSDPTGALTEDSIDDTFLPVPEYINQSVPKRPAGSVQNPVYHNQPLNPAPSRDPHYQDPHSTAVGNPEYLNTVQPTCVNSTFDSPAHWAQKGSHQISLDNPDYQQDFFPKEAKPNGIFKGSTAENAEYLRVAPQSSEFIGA

Row | Kd [nM] | SMILES
1 | 100 to 1000 | COc1ccc(-c2cc3c(NC(C)c4ccccc4)ncnc3[nH]2)cc1 (centres unmarked) [Compound M24]
2 | < 100 | COc1cccc(-c2cc3c(Nc4ccc(Cl)c(Cl)c4)ncnc3[nH]2)c1 [Compound S19]
3 | < 100 | COc1cccc(Nc2ncnc3[nH]c(-c4ccc(O)cc4)cc23)c1 [Compound S36]
4 | < 100 | Oc1ccc(-c2cc3c(Nc4cccc(O)c4)ncnc3[nH]2)cc1 [Compound S33]
5 | > 10000 | COc1ccc(-c2cc3c(N[C@@H](C)c4ccccc4)ncnc3n2C)cc1 [Compound D9]
6 | 1000 to 10000 | Clc1cc(Cl)cc(Nc2ncnc3[nH]c(-c4ccc(Br)cc4)cc23)c1 [Compound S38]
7 | < 100 | COc1cccc(-c2cc3c(NCc4ccc(Cl)cc4)ncnc3[nH]2)c1 [Compound I16]
8 | < 100 | COC(=O)c1cccc(Nc2ncnc3[nH]c(-c4ccc(OC)cc4)cc23)c1 [Compound S4]
9 | < 100 | COc1cccc(-c2cc3c(NCc4ccccc4)ncnc3[nH]2)c1 [Compound I14]
10 | < 100 | COc1cccc(Nc2ncnc3[nH]c(-c4cccc(OC)c4)cc23)c1 [Compound S21]
11 | < 100 | COc1cccc(-c2cc3c(Nc4ccc(Cl)cc4)ncnc3[nH]2)c1 [Compound S23]
12 | < 100 | Cc1cc(C)cc(Nc2ncnc3[nH]c(-c4ccc(O)cc4)cc23)c1 [Compound S30]
13 | 1000 to 10000 | COc1ccc(Cn2c(-c3ccc(OC)cc3)cc3c(Nc4cccc(F)c4)ncnc32)cc1 [Compound K8]
14 | < 100 | Oc1ccc(-c2cc3c(Nc4cccc(F)c4)ncnc3[nH]2)cc1 [Compound S35]
15 | 100 to 1000 | COc1cccc(CNc2ncnc3[nH]c(-c4ccc(O)cc4)cc23)c1 [Compound I19]
16 | 1000 to 10000 | O=C(O)c1cccc(Nc2ncnc3[nH]c(-c4ccc(O)cc4)cc23)c1 [Compound S31]
17 | 100 to 1000 | COc1ccc(-c2cc3c(Nc4cc(Cl)cc(Cl)c4)ncnc3[nH]2)cc1 [Compound S2]
18 | 100 to 1000 | COC(=O)c1cccc(Nc2ncnc3[nH]c(-c4ccc(O)cc4)cc23)c1 [Compound S32]
19 | < 100 | C[C@H](Nc1ncnc2[nH]c(-c3ccc(Br)cc3)cc12)c1ccccc1 [Compound I24]
20 | 100 to 1000 | COc1cccc(Nc2ncnc3[nH]c(-c4ccc(Br)cc4)cc23)c1 [Compound S42]

Row | Kd [nM] | SMILES
21 | < 100 | COc1cccc(-c2cc3c(Nc4cc(C)cc(C)c4)ncnc3[nH]2)c1 [Compound S13]
22 | 100 to 1000 | COc1ccc(-c2nc3c(NCc4cccc(C)c4)ncnc3[nH]2)cc1 [Compound I4]
23 | 100 to 1000 | COC(=O)C(Nc1ncnc2[nH]c(-c3ccc(OC)cc3)cc12)c1ccccc1 (centres unmarked) [Compound I7]
24 | 1000 to 10000 | COc1ccc(C(C)Nc2ncnc3[nH]c(-c4ccc(O)cc4)cc23)cc1 (centres unmarked) [Compound I23]
25 | < 100 | Oc1ccc(-c2cc3c(Nc4ccc(F)cc4)ncnc3[nH]2)cc1 [Compound S37]
26 | 100 to 1000 | Fc1ccc(Nc2ncnc3c2[nH]c2ccccc23)cc1Cl [Compound C14]
27 | < 100 | COc1cccc(-c2cc3c(Nc4ccc(C)cc4)ncnc3[nH]2)c1 [Compound S28]
28 | < 100 | COc1ccc(-c2cc3c(Nc4cccc(C(F)(F)F)c4)ncnc3[nH]2)cc1 [Compound I5]
29 | < 100 | C[C@H](Nc1ncnc2c1[nH]c1ccccc12)c1ccccc1 [Compound C2]
30 | < 100 | CC(Nc1ncnc2[nH]c(-c3ccc(O)cc3)cc12)c1ccccc1 (centres unmarked) [Compound I18]
31 | 1000 to 10000 | C[C@H](Nc1ncnc2[nH]c(-c3ccc(O)cc3)cc12)c1ccccc1 [Compound I9]
32 | < 100 | CC(Nc1ncnc2oc(-c3ccccc3)c(-c3ccccc3)c12)c1ccccc1 (centres unmarked) [Compound H3]
33 | < 100 | C[C@@H](Nc1ncnc2oc(-c3ccccc3)c(-c3ccccc3)c12)c1ccccc1 [Compound H1, (5,6-Diphenyl-furo[2,3-d]pyrimidin-4-yl)-(1-phenyl-ethyl)-amine]
34 | < 100 | COc1cccc(-c2cc3c(NCc4cccc(Cl)c4)ncnc3[nH]2)c1 [Compound I11]
35 | 1000 to 10000 | COc1ccc(Cn2c(-c3ccc(OC)cc3)cc3c(Nc4cc(C)cc(C)c4)ncnc32)cc1 [Compound K6]
36 | 1000 to 10000 | COc1ccc(Cn2c(-c3ccc(OC)cc3)cc3c(NCc4cccc(Cl)c4)ncnc32)cc1 [Compound M20]
37 | 100 to 1000 | COc1ccc(-c2cc3c(NCCc4ccccc4)ncnc3[nH]2)cc1 [Compound I8]
38 | > 10000 | O=C(O)c1cccc(Nc2ncnc3[nH]cnc23)c1 [Compound G6]
39 | 100 to 1000 | COc1cccc(-c2cc3c(NCc4cccc(C)c4)ncnc3[nH]2)c1 [Compound I12]
40 | < 100 | COc1cccc(-c2cc3c(Nc4ccccc4)ncnc3[nH]2)c1 [Compound S27]

Row | Kd [nM] | SMILES
41 | < 100 | COc1ccc(-c2cc3c(Nc4cccc(C(=O)O)c4)ncnc3[nH]2)cc1 [Compound S3]
42 | 100 to 1000 | Cc1cc(C)cc(Nc2ncnc3[nH]c(-c4ccc(Br)cc4)cc23)c1 [Compound S39]
43 | > 10000 | Clc1cccc(Nc2ncnc3[nH]cnc23)c1 [Compound G12]
44 | < 100 | COc1cccc(-c2cc3c(Nc4cccc(O)c4)ncnc3[nH]2)c1 [Compound S16]
45 | < 100 | Oc1ccc(-c2cc3c(NCc4ccccc4)ncnc3[nH]2)cc1 [Compound I21]
46 | 1000 to 10000 | COc1ccc(C(C)Nc2ncnc3[nH]c(-c4cccc(OC)c4)cc23)cc1 (centres unmarked) [Compound I17]
47 | < 100 | COc1ccc(-c2cc3c(Nc4cccc(C)c4)ncnc3[nH]2)cc1 [Compound S10]
48 | 1000 to 10000 | Clc1ccc(Nc2ncnc3[nH]cnc23)cc1Cl [Compound G3]
49 | 1000 to 10000 | COc1ccc(Cn2c(-c3ccc(OC)cc3)cc3c(Nc4cccc(O)c4)ncnc32)cc1 [Compound K7]
50 | < 100 | COc1cccc(-c2cc3c(Nc4ccc(F)cc4)ncnc3[nH]2)c1 [Compound S24]
51 | < 100 | COc1ccc(-c2cc3c(N[C@H](C)c4ccccc4)ncnc3[nH]2)cc1 [Compound M21]
52 | < 100 | COc1cccc(-c2cc3c(Nc4cccc(F)c4)ncnc3[nH]2)c1 [Compound S22]
53 | > 10000 | COc1cccc(CNc2ncnc3nc[nH]c23)c1 [Compound G15]
54 | < 100 | COc1ccc(-c2cc3c(Nc4ccc(Cl)c(C(F)(F)F)c4)ncnc3[nH]2)cc1 [Compound S8]
55 | < 100 | Oc1ccc(-c2cc3c(NCCc4ccccc4)ncnc3[nH]2)cc1 [Compound I22]
56 | 1000 to 10000 | Cn1c(-c2ccc(O)cc2)cc2c(Nc3cccc(Br)c3)ncnc21 [Compound Q7]
57 | < 100 | Cc1cccc(CNc2ncnc3[nH]c(-c4ccc(O)cc4)cc23)c1 [Compound I20]
58 | > 10000 | COC(=O)c1cccc(Nc2ncnc3[nH]c(-c4cccc(OC)c4)cc23)c1 [Compound S15]
59 | < 100 | COc1ccc(-c2cc3c(N[C@H](C)c4ccccc4)nc(N[C@@H](C)c4ccccc4)nc3[nH]2)cc1 [Compound M22]
60 | < 100 | COc1ccc(-c2cc3c(N[C@@H](C)c4ccccc4)ncnc3n2C(C)C)cc1 [Compound D10]

These compounds were tested against T1, EGFR (assay: EGFR autophosphorylation (tyrosine 1173) inhibition assay in lung cancer cell line A459). Settings: EGF-induced phosphorylation of tyrosine 1173.
Type: cell-based
Set-up: 3.6×10^5 A549 cells/well in a 24-well culture plate; endogenous in cells
Method: (§1) Cells were stimulated by the addition of 5 ng/ml of EGF for five minutes. Cells were then washed with cold phosphate buffered saline (PBS), and incubated for 30 minutes at 4° C. in lysis buffer. […] Total EGFR levels were also measured in the same manner to control for protein level differences.

Row | IC50 [nM] | SMILES
61 | 1000 to 10000 | C[C@H](Nc1ncnc2c1[nH]c1ccccc12)c1ccccc1 [Compound C2]
62 | < 100 | COc1ccc(-c2cc3c(N[C@@H](C)c4ccccc4)ncnc3n2C(C)C)cc1 [Compound D10]

Each compound was assayed against T1, EGFR (assay: EGFR autophosphorylation (tyrosine 1173) inhibition assay in A431 cells). Settings: Epidermoid Carcinoma Cell Line A431; EGF-induced phosphorylation of tyrosine 1173.
Type: cell-based
Set-up: 4×10^4 A431 cells/well in a 96-well culture plate; endogenous in cells; host or cells: A431
Method: as §1

Row | IC50 [nM] | SMILES
63 | 100 to 1000 | C[C@H](Nc1ncnc2c1[nH]c1ccccc12)c1ccccc1 [Compound C2]
64 | 100 to 1000 | CC(Nc1ncnc2oc(-c3ccccc3)c(-c3ccccc3)c12)c1ccccc1 (centres unmarked) [Compound H3]
65 | 100 to 1000 | C[C@@H](Nc1ncnc2oc(-c3ccccc3)c(-c3ccccc3)c12)c1ccccc1 [Compound H1, (5,6-Diphenyl-furo[2,3-d]pyrimidin-4-yl)-(1-phenyl-ethyl)-amine]
66 | 100 to 1000 | Cc1cc(C)cc(Nc2ncnc3[nH]c(-c4ccc(Br)cc4)cc23)c1 [Compound S39]
67 | < 100 | COc1ccc(-c2cc3c(Nc4cccc(C)c4)ncnc3[nH]2)cc1 [Compound S10]
68 | 100 to 1000 | COc1ccc(-c2cc3c(N[C@@H](C)c4ccccc4)ncnc3n2C(C)C)cc1 [Compound D10]
